Experimental data reported in article PMC4907212, “Mucosal and blood-brain barrier transport kinetics of the plant N-alkylamide spilanthol using in vitro and in vivo models” (BMC Complementary and Alternative Medicine, 2016).
Read-outs that look alike come from different tables or passages of the source.

Columns and labels:
[1] = Brain-to-blood transport after intracerebroventricular injection; assay type: in vivo, ICR-CD-1 mice; details: female, ICR-CD-1, mouse, icv or intrathecal, 4 μg per mouse; mice, ICV injection, ln(2)/kout; read-out: efflux brain half-life t1/2,brain
Procedure: (§1) To evaluate the efflux of spilanthol out of the brain, an in vivo method previously described was used. Briefly, after anesthetizing the ICR-CD-1 mice using a 40 % (w/V) urethane solution (3 g/kg), the skin of the skull was removed. Thereafter, a hole was made into the lateral ventricle using a 22 G needle marked with tape at 2 mm at the following coordinates: 1 mm lateral and 0.34 mm posterior to the bregma. 1 μl of the 4 mg/ml spilanthol dose solution as used for the blood-to-brain influx experiment was injected intracerebroventriculary (ICV) using a syringe pump (KDS100, KR analytical, Cheshire, UK) at a speed of 360 μl/h for 10 s. […] Prior to decapitation, blood was collected from the abdominal aorta. Serum was obtained by centrifuging the blood at 10 000 g during 15 min at 21 °C and brains were collected. The efflux brain half-life (t1/2,brain) (min) was calculated from the linear regression of the natural logarithm of the spilanthol concentration in brain (ng/g) versus time as follows: t1/2,brain = ln(2)/kout, where kout (min^−1) is defined as the efflux rate constant calculated as the negative value of the slope of the linear regression, applying first order kinetics.

blood-brain barrier = assay: as above; assay type: in vivo, ICR-CD-1 mice; details: mice, ICV injection of 1 μl of 4 mg/ml dose solution
Procedure: as §1

[2] = Capillary depletion (distribution brain parenchyma versus capillaries); assay type: in vivo, ICR-CD-1 mice; details: female, ICR-CD-1, mouse, iv, 80 μg per mouse, mice, 10 min after i.v. injection
Procedure: To investigate the distribution of spilanthol in the parenchyma and capillaries of the brain, a capillary depletion experiment was performed. By means of this experiment, it is possible to distinguish the transport of spilanthol into the brain (represented by the parenchyma) and part of spilanthol which is trapped by the endothelial cells of the brain (represented by the capillaries). The method of Triguero et al., as modified by Gutierrez et al., was used. Briefly, after anesthetizing the mice intraperitoneally with 40 % (w/V) urethane solution (3 g/kg), 20 μl of the 4 mg/ml spilanthol dose solution was injected into the jugular vein. Blood was collected from the abdominal aorta ten min after injection and serum was obtained by centrifuging the blood at 10 000 g during 15 min at 21 °C. Immediately after blood collection, the skin of the mice’s chest is removed to clamp the aorta and the jugular veins are severed. Immediately after clamping the aorta, the brain is perfused manually with 20 ml of Lactated Ringer’s solution. […]
The distribution was calculated as follows: Fraction%=Mtissue/Mcapillaries+Mparenchyma×100 where Mtissue represents the amount of spilanthol in the capillaries, respectively parenchyma; Mcapillaries the amount of spilanthol in the capillaries and Mparenchyma the amount of spilanthol in the parenchyma.

[3] = Serum elimination kinetics in the mice MTR model after intravenous injection; assay type: in vivo, ICR-CD-1 mice
[4] = parameters: method as in PMID 20227845, PMID 19808085, PMID 23583736; details: human skin, topical application; cited from earlier work

C/C=C/C=C\CC/C=C/C(=O)NCC(C)C [spilanthol, deca-2E,6Z,8E-trienoic acid isobutylamide]
half-life [1]: 6.4 min
efflux transfer constant kout (blood-brain barrier): 0.11 min⁻¹
Kp at 10 min ([2]; brain capillaries/serum, read-out: spilanthol in brain capillaries (brain/serum ratio)): 0.0024
Kp at 10 min ([2]; brain parenchyma/serum, read-out: spilanthol in brain parenchyma (brain/serum ratio)): 0.138
half-life ([3]; female, ICR-CD-1, iv, 80 μg per mouse, mouse serum, i.v.): 3.16 min
k el ([3]; female, ICR-CD-1, iv, 80 μg per mouse, mouse serum, i.v., one compartmental model, read-out: elimination rate constant (converted)): 0.00367 s⁻¹
concentration of spilanthol at time zero in serum ([3]; mice, i.v. 20 μl of 4 mg/ml, one compartmental model): 3050 ng/mL
permeability coefficient Kp,aq [4]: 0.919 ×10⁻⁶ cm/s
